Results taken from PMC3791872 (Bioscience Reports, 2013).
Where two headings read alike, the source gives them in different places.

Columns and labels:
Mcm2-7 [1] = test system: T1, Mcm2-7; assay: ssDNA double filter-binding assay, Mcm2-7; set-up: species or system Saccharomyces cerevisiae; settings: 1 mM compound, 150 nM helicase
T1 construct: made in house; host or cells: baculovirus-infected insect cells

Mcm467 [2] = target: T2, Mcm467 (Saccharomyces cerevisiae, UniProt P30665+P38132+P53091); assay: ssDNA double filter-binding assay, Mcm467; settings: 1 mM compound, 150 nM helicase
T2 construct: made in house; host or cells: baculovirus-infected insect cells

Mcm2-7 [3] = target: T1, Mcm2-7; assay: Mcm2-7 helicase (DNA unwinding) assay; format: biochemical, Saccharomyces cerevisiae; settings: for IC50: DNA unwinding
Mcm467 [4] = target: T2, Mcm467; assay: Mcm467 helicase (DNA unwinding) assay; format: biochemical
[5] = target: SV40 large TAg (T-antigen) (Simian virus 40, UniProt P03070); assay: biochemical; set-up: species or system SV40 (simian virus 40); settings: for IC50: DNA unwinding
[6] = test system: S. cerevisiae ∆erg6 (UPY675); assay: Yeast growth inhibition, 96-well assay, ∆erg6 strain; format: cell-based, Saccharomyces cerevisiae; settings: for IC50: Saccharomyces cerevisiae, ∆erg6 strain, growth over 24 h, read-out: IC50 Yeast
RPE-hTERT cells = assay: Human cell viability, MTS method; format: cell-based; settings: 48 h, value (95% CI)
Method: Ciproﬂoxacin is an inhibitor of the Mcm2-7 […]
The viability of human cells was assayed using the MTS method
[1]. Brieﬂy, 1 ×10^5 cells of the human non-tumour cell line RPE-hTERT were plated into each well of a 96-well plate and grown in DMEM: F12 containing 10 % (v/v) FBS in 5 % (v/v) CO2 at 37 ◦ C. The next day, the indicated compounds were titrated into media such that the ﬁnal concentration contained 1 % (v/v)
DMSO. As a negative control, media were also prepared that contained 1 % DMSO but lacked compound. After 48 h, the media was removed and replaced with DMEM lacking phenol red but containing Cell Titer 96 Aqueous One Solution Cell Proliferation
Assay (Promega). After 1 h, the A490 nm was measured using a BioRad iMark Microplate Reader (Hercules). Final data reﬂect the average and standard deviation (S.D.) of three replicates at each compound concentration. […]

pUC19 = assay: DNA intercalation assay (Topo I-relaxed plasmid); format: biochemical
Source text: To examine this model, we tested our inhibitors in a standard topoisomerase assay. The rationale of this assay is that intercalating compounds will introduce supercoils into a fully relaxed plasmid. Topo I will remove these introduced supercoils, but after quenching and gel electrophoresis the intercalator will diffuse away and produce a detectable compensatory supercoiling increase.

DnaB = DnaB (Escherichia coli, UniProt P0ACB0); assay: DnaB helicase assay; format: biochemical; settings: 1 mM, Figure S3
Method: (§1) Helicase assays were performed essentially as described. Synthetic replication forks were prepared by annealing oligos 233 and 235 [IDT (Coralville), oligo 233 5′(T)40[…]; oligo 235 5′ […](T)40] and then filling in the recessed 3′-end with [α32P]dATP and unlabelled dNTPs using Klenow Fragment. Briefly, reactions ([…]) were performed in 1× helicase assay buffer [20 mM Tris/HCl (pH 7.5), 10 mM MgOAc, 20% (v/v) glycerol, 100 μM EDTA and 5 mM DTT (dithiothreitol)] and contained a final concentration of 1 nM fork substrate, 5 mM ATP, 40 mM creatine phosphate, […] creatine kinase, 33 μg/ml BSA. Reactions containing Mcm2-7 and Mcm467 were supplemented with 200 mM potassium glutamate. Reactions containing SsoMcm were incubated at 65°C, those containing T4 gp41 were incubated for 30 min at 37°C, and all other reactions were incubated at 37°C for 1 h. The products were separated by 10% (w/v) native PAGE, the resulting gels dried and the radioactivity quantified using a Fuji FLA-5100 phosphoimager. Irrespective of the protein used, all helicase assays contained equal molar helicase concentrations (100 nM, assuming in all cases that the active helicase form is hexameric). Steady-state ATP hydrolysis was assayed as published. In short, reactions were set up essentially as in the helicase assay, with minor exceptions. A non-radiolabelled DNA fork was used, helicase concentration was 100 nM (hexamer) the total ATP concentration was 500 μM and included ~0.5 μCi of [α32P]ATP, and the ATP regeneration system was omitted. Reactions were incubated for 1 h at 37°C and stopped by the addition of SDS. ATP was separated from ADP by PEI (polyethyleneimine) thin layer chromatography, and the ratio of ATP:ADP was quantified using a Fuji FLA-5100 phosphoimager. Based on our prior work, conditions were established to ensure that the results shown are within the linear range of the assay. Protein–ssDNA binding was determined with a double filter-binding assay using an ssDNA probe (oligo 826, 5′[…]) that was 5′-radiolabelled using T4 polynucleotide kinase and [γ32P]ATP [16]. For the double filter-binding assay, the helicase concentration was 150 nM (hexamer) and the ssDNA concentration was 4 nM. For all biochemical assays, helicases were preincubated with inhibitors for 20 min at 37°C unless otherwise indicated. […]
(§2) against different helicases
(§3) Representative helicase activity assays in the presence of the indicated inhibitor were tested, quantiﬁed and standardized as described in the legend to F igures 2 (A) and (B). All helicases were assayed at 100 nM
(§4) ﬁnal concentration (hexamer) with inhibitor preincubation prior to ATP […]
(§5) F igure S3 Ciproﬂoxacin poor ly inhibits hexameric helicases un- […]
(§6) All inhibitors were used at 1 mM ﬁnal concentration. […]

T4 gp41 = target: T3, T4 gp41 (Enterobacteria phage T4, UniProt P04530); assay: T4 gp41 helicase assay; format: biochemical; settings: 1 mM, Figure S3
T3 sequence (P04530 1-475): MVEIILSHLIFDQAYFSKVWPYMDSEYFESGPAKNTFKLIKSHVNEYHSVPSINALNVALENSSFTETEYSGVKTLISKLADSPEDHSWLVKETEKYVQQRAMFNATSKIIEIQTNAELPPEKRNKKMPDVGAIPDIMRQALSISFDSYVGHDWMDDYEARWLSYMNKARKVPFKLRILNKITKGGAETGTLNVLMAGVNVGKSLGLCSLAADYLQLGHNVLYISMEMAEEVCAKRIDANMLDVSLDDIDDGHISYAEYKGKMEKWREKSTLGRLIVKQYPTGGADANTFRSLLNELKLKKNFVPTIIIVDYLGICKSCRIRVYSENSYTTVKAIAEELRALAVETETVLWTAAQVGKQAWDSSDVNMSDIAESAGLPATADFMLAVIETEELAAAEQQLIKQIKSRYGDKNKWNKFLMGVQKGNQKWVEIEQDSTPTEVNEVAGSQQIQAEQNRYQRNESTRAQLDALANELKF
Method: as §1, §2, §3, §4, §5, §6

Mcm2-7 [7] = test system: T1, Mcm2-7; assay: Steady-state ATP hydrolysis by Mcm2-7; format: biochemical, Saccharomyces cerevisiae; settings: 1 mM compound, 100 nM hexamer
Mcm467 [8] = target: T2, Mcm467; assay: Steady-state ATP hydrolysis by Mcm467; format: biochemical; settings: 1 mM compound, 100 nM hexamer
SV40 large TAg = target: T4, SV40 large TAg (Simian virus 40, UniProt P03070); assay: Steady-state ATP hydrolysis by TAg; format: biochemical, SV40 (simian virus 40); settings: 1 mM compound, 100 nM hexamer
T4 construct: made in house

[9] = target: T5, SsoMcm (Sulfolobus solfataricus Mcm protein) complex (Saccharolobus solfataricus, UniProt Q9UXG1); assay: SsoMcm helicase assay; format: biochemical; settings: 1 mM, 65°C, Figure S3
T5 sequence (Q9UXG1 1-686): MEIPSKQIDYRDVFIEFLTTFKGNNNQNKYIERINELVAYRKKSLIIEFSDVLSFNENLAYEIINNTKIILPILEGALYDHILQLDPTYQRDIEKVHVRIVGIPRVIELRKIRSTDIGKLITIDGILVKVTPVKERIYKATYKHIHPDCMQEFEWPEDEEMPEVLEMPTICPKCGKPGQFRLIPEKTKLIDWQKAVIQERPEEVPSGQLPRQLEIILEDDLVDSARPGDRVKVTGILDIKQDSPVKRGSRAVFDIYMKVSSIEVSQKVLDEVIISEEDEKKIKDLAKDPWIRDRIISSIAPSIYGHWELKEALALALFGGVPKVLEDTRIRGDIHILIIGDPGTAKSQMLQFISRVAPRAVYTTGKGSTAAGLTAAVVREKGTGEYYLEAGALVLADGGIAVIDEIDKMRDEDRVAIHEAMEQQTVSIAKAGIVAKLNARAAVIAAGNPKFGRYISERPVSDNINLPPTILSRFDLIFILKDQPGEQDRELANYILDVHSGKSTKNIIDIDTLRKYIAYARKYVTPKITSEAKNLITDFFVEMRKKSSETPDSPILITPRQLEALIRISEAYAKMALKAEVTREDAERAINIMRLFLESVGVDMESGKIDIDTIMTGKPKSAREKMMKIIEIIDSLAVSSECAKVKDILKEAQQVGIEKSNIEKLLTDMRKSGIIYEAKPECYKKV
Method: Helicase assays were performed essentially as described. Synthetic replication forks were prepared by annealing oligos 233 and 235 [IDT (Coralville), oligo 233 5′(T)40[…]; oligo 235 5′ […](T)40] and then filling in the recessed 3′-end with [α32P]dATP and unlabelled dNTPs using Klenow Fragment. Briefly, reactions ([…]) were performed in 1× helicase assay buffer [20 mM Tris/HCl (pH 7.5), 10 mM MgOAc, 20% (v/v) glycerol, 100 μM EDTA and 5 mM DTT (dithiothreitol)] and contained a final concentration of 1 nM fork substrate, 5 mM ATP, 40 mM creatine phosphate, […] creatine kinase, 33 μg/ml BSA. Reactions containing Mcm2-7 and Mcm467 were supplemented with 200 mM potassium glutamate. Reactions containing SsoMcm were incubated at 65°C, those containing T4 gp41 were incubated for 30 min at 37°C, and all other reactions were incubated at 37°C for 1 h. The products were separated by 10% (w/v) native PAGE, the resulting gels dried and the radioactivity quantified using a Fuji FLA-5100 phosphoimager. […] ATP was separated from ADP by PEI (polyethyleneimine) thin layer chromatography, and the ratio of ATP:ADP was quantified using a Fuji FLA-5100 phosphoimager. […] Protein–ssDNA binding was determined with a double filter-binding assay using an ssDNA probe (oligo 826, 5′[…]) that was 5′-radiolabelled using T4 polynucleotide kinase and [γ32P]ATP [16]. […]

[10] = 100 nM hexamer, inhibitor preincubation, […], read-out: IC50 T-antigen
[11] = 1 mM inhibitor added after plasmid relaxation (Figure 3C)
[12] = inhibitor at 2- to 3-fold over calculated helicase IC50 (Figure 3E)
[13] = 100 nM hexamer, inhibitor preincubation, value (95% CI), read-out: IC50 Mcm2-7
[14] = DNA unwinding, 100 nM hexamer, inhibitor preincubation, value (95% CI), read-out: IC50 Mcm467
[15] = any concentration tested, results not shown

T2 sequence (P30665 whole entry): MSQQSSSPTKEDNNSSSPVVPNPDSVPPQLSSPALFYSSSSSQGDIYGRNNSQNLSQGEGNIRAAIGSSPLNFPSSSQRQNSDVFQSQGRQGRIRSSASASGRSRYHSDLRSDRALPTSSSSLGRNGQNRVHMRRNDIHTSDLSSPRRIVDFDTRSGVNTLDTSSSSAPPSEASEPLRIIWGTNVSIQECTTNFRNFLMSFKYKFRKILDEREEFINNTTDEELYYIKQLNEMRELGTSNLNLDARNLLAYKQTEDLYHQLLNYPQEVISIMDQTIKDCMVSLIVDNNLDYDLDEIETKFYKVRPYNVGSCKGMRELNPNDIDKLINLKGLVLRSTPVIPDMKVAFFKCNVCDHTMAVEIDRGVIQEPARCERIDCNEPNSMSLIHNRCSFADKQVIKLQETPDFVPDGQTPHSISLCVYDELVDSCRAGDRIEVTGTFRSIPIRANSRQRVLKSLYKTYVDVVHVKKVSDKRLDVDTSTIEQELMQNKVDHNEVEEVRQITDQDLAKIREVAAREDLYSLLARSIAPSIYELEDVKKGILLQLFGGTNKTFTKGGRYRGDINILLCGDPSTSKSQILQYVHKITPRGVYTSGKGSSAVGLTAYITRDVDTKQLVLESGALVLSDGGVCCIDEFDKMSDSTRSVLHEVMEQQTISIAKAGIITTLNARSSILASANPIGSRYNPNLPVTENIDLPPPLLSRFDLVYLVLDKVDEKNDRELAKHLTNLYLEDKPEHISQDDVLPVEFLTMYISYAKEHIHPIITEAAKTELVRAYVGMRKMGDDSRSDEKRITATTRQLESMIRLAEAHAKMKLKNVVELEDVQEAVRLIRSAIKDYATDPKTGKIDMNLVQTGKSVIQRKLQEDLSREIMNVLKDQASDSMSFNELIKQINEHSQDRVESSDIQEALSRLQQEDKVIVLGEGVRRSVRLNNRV
T2 sequence (P53091 whole entry): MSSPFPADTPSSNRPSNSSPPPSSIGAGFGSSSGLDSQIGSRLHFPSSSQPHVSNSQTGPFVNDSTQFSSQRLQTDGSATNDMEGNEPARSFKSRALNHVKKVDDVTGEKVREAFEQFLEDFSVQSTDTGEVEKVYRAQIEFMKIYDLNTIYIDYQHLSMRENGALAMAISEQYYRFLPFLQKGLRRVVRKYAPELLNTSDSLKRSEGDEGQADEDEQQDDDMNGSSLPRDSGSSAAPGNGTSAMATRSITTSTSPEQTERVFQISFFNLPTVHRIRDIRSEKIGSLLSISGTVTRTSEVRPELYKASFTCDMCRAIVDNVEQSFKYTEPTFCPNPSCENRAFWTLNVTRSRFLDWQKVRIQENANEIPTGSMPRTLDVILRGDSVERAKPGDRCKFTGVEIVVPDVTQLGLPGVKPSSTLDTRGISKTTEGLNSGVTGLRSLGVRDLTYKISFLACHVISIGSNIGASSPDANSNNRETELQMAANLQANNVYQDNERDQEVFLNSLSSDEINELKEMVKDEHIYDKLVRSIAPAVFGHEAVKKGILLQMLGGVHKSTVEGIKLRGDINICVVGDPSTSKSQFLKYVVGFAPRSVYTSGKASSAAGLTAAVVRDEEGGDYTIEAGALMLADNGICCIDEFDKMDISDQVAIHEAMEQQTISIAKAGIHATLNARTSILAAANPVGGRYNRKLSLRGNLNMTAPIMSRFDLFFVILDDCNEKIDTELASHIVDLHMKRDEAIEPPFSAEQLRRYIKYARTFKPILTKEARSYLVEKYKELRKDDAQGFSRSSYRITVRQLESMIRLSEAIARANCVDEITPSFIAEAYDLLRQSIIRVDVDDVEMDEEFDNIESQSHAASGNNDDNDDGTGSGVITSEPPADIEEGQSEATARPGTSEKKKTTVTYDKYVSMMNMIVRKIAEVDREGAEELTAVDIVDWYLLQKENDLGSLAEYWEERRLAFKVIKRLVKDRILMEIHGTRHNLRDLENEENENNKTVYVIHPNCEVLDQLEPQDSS
T2 sequence (P38132 whole entry): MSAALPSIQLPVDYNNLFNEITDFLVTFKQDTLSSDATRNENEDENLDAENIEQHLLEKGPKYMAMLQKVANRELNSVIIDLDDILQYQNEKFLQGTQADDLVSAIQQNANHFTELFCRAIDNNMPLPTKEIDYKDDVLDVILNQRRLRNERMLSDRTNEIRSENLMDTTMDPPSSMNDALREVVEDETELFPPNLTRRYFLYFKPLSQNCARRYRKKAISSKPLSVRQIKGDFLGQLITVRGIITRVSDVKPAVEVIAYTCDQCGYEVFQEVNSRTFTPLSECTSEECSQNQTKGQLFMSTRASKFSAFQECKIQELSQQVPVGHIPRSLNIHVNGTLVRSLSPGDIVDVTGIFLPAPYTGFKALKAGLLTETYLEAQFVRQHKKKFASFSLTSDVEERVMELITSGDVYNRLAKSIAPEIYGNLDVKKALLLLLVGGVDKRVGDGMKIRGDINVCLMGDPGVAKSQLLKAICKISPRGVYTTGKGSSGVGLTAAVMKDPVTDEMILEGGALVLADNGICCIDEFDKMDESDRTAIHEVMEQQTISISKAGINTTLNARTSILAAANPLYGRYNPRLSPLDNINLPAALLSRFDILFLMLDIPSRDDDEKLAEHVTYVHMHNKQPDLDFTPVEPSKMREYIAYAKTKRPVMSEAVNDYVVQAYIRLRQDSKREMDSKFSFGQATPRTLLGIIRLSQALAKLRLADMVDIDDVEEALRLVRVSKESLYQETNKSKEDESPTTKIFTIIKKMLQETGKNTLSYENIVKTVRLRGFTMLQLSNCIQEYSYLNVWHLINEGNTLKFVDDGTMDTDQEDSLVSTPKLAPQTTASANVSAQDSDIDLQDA
Chain of SV40 large TAg (T-antigen) (P03070 whole entry, looked up): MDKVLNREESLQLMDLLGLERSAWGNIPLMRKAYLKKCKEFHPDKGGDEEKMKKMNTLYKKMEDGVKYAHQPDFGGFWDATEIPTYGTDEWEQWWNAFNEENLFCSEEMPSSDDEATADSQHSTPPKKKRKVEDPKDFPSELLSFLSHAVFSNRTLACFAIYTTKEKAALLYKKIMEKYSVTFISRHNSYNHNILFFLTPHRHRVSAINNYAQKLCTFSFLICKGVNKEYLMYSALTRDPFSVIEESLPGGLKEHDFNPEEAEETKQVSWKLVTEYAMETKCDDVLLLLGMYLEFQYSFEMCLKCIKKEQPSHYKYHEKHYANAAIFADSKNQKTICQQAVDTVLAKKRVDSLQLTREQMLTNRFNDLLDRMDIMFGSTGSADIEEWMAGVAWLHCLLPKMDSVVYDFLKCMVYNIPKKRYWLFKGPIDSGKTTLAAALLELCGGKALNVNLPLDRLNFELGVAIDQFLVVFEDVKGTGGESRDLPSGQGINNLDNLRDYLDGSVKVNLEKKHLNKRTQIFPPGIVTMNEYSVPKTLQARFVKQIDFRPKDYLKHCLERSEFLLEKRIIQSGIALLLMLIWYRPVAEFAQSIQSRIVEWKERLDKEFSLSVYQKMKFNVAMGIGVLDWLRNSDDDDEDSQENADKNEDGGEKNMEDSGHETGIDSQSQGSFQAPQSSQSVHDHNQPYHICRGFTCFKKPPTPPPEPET
Chain of DnaB (P0ACB0 whole entry, the tested form may be a part): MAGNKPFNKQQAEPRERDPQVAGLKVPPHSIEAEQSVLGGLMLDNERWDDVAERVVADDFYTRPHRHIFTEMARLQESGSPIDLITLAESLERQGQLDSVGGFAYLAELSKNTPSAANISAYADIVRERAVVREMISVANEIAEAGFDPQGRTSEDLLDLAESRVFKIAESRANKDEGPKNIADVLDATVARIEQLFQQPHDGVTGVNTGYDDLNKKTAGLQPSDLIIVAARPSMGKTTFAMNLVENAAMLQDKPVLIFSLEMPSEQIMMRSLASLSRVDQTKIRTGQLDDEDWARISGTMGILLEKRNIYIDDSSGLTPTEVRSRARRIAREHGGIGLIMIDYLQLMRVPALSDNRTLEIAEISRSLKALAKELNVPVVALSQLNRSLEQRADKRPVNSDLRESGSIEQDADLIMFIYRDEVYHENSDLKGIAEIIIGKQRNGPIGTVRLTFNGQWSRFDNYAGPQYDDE

Row | Compound | IC50 [5, 10] | IC50 ([6]; value (95% CI)) | IC50 (RPE-hTERT cells; Homo sapiens) | DNA intercalation (pUC19; [11]) | inhibition of DnaB helicase (DnaB) | inhibition of T4 gp41 helicase (T4 gp41) | IC50 (Mcm2-7 [3]; [13]) | IC50 (Mcm467 [4]; [14]) | other results
1 | CCN1C(=O)C=CC1=O [NEM, N-ethylmaleimide] |  |  |  |  |  |  |  |  | effect on ssDNA binding of Mcm2-7 (Mcm2-7 [1]): inhibit; effect on ssDNA binding of Mcm467 (Mcm467 [2]): inhibit
2 | Cc1c(F)c(N2CCC(N)C2)nc2c1c(=O)c(C(=O)O)cn2C1CC1 (stereo not drawn) [compound 125248] | 190 µM | 460 µM | ~10 µM | extensive DNA intercalation | nearly complete inhibition | nearly complete inhibition |  |  | IC50 (Mcm2-7 [3]; read-out: IC50 Mcm2-7, 100 nM hexamer, inhibitor preincubation, value (95% CI)): 72 µM; IC50 (Mcm467 [4]; IC50 Mcm467, DNA unwinding, 100 nM hexamer, inhibitor preincubation, value (95% CI)): 130 µM; IC50 (RPE-hTERT cells): 14 µM; DNA intercalation (pUC19; [12]): significant DNA intercalation
3 | NC1CCN(c2ccc3c(=O)c(C(=O)O)cn(-c4ccc(O)cc4)c3c2Cl)C1 (stereo not drawn) [compound 268973] | 476 µM | 160 µM |  | extensive DNA intercalation | nearly complete inhibition | nearly complete inhibition | 188 µM | 272 µM | effect on ATP hydrolysis of Mcm2-7 (Mcm2-7 [7]): modest inhibition; effect on ATP hydrolysis of Mcm467 (Mcm467 [8]): modest inhibition; effect on ATP hydrolysis of TAg (SV40 large TAg): modest inhibition; DNA intercalation (pUC19; [12]): significant DNA intercalation
4 | CSc1c(N2CCC(C(C)N)C2)ccc2c(=O)c(C(=O)O)cn(C3CC3)c12 (stereo not drawn) [compound 314850] | > 1000 µM | 520 µM | 500 to 700 µM | little or no intercalation |  |  | 261 µM | 707 µM | IC50 (RPE-hTERT cells): 340 µM; effect on ATP hydrolysis of Mcm2-7 (Mcm2-7 [7]): essentially no inhibition; effect on ATP hydrolysis of Mcm467 (Mcm467 [8]): essentially no inhibition; effect on ATP hydrolysis of TAg (SV40 large TAg): essentially no inhibition; inhibition of SsoMcm helicase [9]: effectively inhibited
5 | Cc1ccc(-c2cc(-c3ccccc3)nc(N3CCNCC3)n2)cc1 [compound 388612] | 126 µM |  |  | extensive DNA intercalation |  |  | 396 µM | 345 µM | IC50 ([6]; insufficient data for 95% CI): < 0.01 µM
6 | c1ccc(Nc2nc(Nc3ccccc3)nc(N3CCNCC3)n2)cc1 [compound 924384] | 70 µM | 93 µM | ~10 µM | extensive DNA intercalation | nearly complete inhibition | nearly complete inhibition | 115 µM | 246 µM | 
7 | CCn1cc(C(=O)O)c(=O)c2ccc(C)nc21 [naladixic acid, reference compound] |  |  |  |  |  |  |  |  | effect on Mcm2-7 helicase activity (Mcm2-7 [3]; [15]): essentially no effect; effect on Mcm467 helicase activity (Mcm467 [4]; [15]): essentially no effect; effect on TAg helicase activity [5, 15]: essentially no effect
8 | CC1COc2c(N3CCN(C)CC3)c(F)cc3c(=O)c(C(=O)O)cn1c23 (stereo not drawn) [ofloxacin, reference compound] |  |  |  |  |  |  |  |  | IC50 (Mcm2-7 [3]; 100 nM complex, read-out: IC50 Mcm2-7 helicase activity): 4170 µM; IC50 (Mcm467 [4]; DNA unwinding, 100 nM complex, read-out: IC50 Mcm467 helicase activity): 5290 µM; IC50 ([5]; 100 nM complex, read-out: IC50 TAg helicase activity): > 20000 µM; growth response of ∆erg6 yeast ([6]; Figure 4A): demonstrable growth sensitivity
